Measurements taken from patent US20210268129A1, “Theranostic Radiophotodynamic Therapy Nanoparticles” (priority 2018, published 2021).

Experiments:
[1] = tested on: prostate cancer cell line PC3
Description: (§1) To confirm, baseline toxicity experiments were conducted with the fully assembled nanoparticles and its constituents. […] MTT assays detected changes in cell proliferation and viability.

[2] = tested on: prostate cancer cell line DU145
Description: as §1

[3] = tested on: normal skin fibroblast cell line GM38
Description: as §1

Measured: baseline cytotoxicity over increasing doses

C=CC1=C(C)c2cc3[nH]c(cc4nc(cc5[nH]c(cc1n2)c(C)c5CCC(=O)O)C(CCC(=O)O)=C4C)c(C)c3C=C [PPIX, protoporphyrin IX]
No appreciable differences: all assays above
